Earlier results, collected in patent publication US20250261683A1, “ORAL COMPOSITION COMPRISING ENCAPSULATED PH ADJUSTING AGENT” (NICOVENTURES TRADING LIMITED, priority 2022, published 2025).

What was measured:
[1] = descriptive statement
[2] = descriptive statement; isomerizes to trans-bixin

**Q.** For `CC(/C=C/C=C(C)/C=C/C(=O)O)=C\C=C\C=C(C)\C=C\C=C(C)\C=C\C(=O)O` (stereo in doubt) [norbixin, (2E,4E,6E,8E,10E,12E,14E,16E,18E)-4,8,13,17-tetramethylicosa-2,4,6,8,10,12, 14,16, 18-nonaenedioic acid], which solubility in water [1] is on record?
**A.** The solubility in water was “water-soluble”.

**Q.** For `COC(=O)/C=C/C(C)=C\C=C\C(C)=C\C=C\C=C(C)\C=C\C=C(C)\C=C\C(=O)O` [bixin, (2E,4E,6E,8E,10E,12E,14E,16Z,18E)-20-methoxy-4,8,13,17-tetramethyl-20-oxoicosa-2,4,6,8,10,12,14,16,18-nonaenoic acid], which “chemical stability when isolated” value [2] is on record?
**A.** The value was “chemically unstable”.

**Q.** What about the “solubility in fats and alcohols” value [1] of the same molecule?
**A.** Its value is “soluble”.

**Q.** And the solubility in water [1]?
**A.** Its solubility in water is “insoluble”.
